Measurements as given in the supplement of paper PMC11451515.

Tested on: P12-Ichikawa
Test: cell viability relative to DMSO control; higher = less cytotoxic
Conditions: 48 h
Summary of the method: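 In 1536-well plates, 5 μl of leukemia cells were seeded per well: 500 cells/well for NOMO1 or SEM and 1000 cells/well for P12-Ichikawa. Each line had first been adapted for at least four passages in each medium. Library compounds in DMSO were pin-dosed at 11 threefold concentrations between 47 μM and 0.79 nM, and CellTiter-Glo One luminescence was read after 48 h at 37°C. Viability is a per-plate percentage relative to DMSO wells, with cell-free wells as background.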

[1] = HPLM + 10% dialyzed FBS, 0.000781 µM
[2] = HPLM + 10% dialyzed FBS, 0.00234 µM
[3] = HPLM + 10% dialyzed FBS, 0.00702 µM
[4] = HPLM + 10% dialyzed FBS, 0.0211 µM
[5] = HPLM + 10% dialyzed FBS, 0.0632 µM
[6] = HPLM + 10% dialyzed FBS, 0.19 µM
[7] = HPLM + 10% dialyzed FBS, 0.569 µM
[8] = HPLM + 10% dialyzed FBS, 1.71 µM
[9] = HPLM + 10% dialyzed FBS, 5.12 µM
[10] = HPLM + 10% dialyzed FBS, 15.4 µM
[11] = HPLM + 10% dialyzed FBS, 46.1 µM
[12] = RPMI 5 mM glucose + 10% FBS, 0.000781 µM
[13] = RPMI 5 mM glucose + 10% FBS, 0.00234 µM
[14] = RPMI 5 mM glucose + 10% FBS, 0.00702 µM
[15] = RPMI 5 mM glucose + 10% FBS, 0.0211 µM
[16] = RPMI 5 mM glucose + 10% FBS, 0.0632 µM
[17] = RPMI 5 mM glucose + 10% FBS, 0.19 µM
[18] = RPMI 5 mM glucose + 10% FBS, 0.569 µM
[19] = RPMI 5 mM glucose + 10% FBS, 1.71 µM
[20] = RPMI 5 mM glucose + 10% FBS, 5.12 µM
[21] = RPMI 5 mM glucose + 10% FBS, 15.4 µM
[22] = RPMI 5 mM glucose + 10% FBS, 46.1 µM
[23] = RPMI 5 mM glucose + 10% dialyzed FBS, 0.000781 µM
[24] = RPMI 5 mM glucose + 10% dialyzed FBS, 0.00234 µM
[25] = RPMI 5 mM glucose + 10% dialyzed FBS, 0.00702 µM
[26] = RPMI 5 mM glucose + 10% dialyzed FBS, 0.0211 µM
[27] = RPMI 5 mM glucose + 10% dialyzed FBS, 0.0632 µM
[28] = RPMI 5 mM glucose + 10% dialyzed FBS, 0.19 µM
[29] = RPMI 5 mM glucose + 10% dialyzed FBS, 0.569 µM
[30] = RPMI 5 mM glucose + 10% dialyzed FBS, 1.71 µM
[31] = RPMI 5 mM glucose + 10% dialyzed FBS, 5.12 µM
[32] = RPMI 5 mM glucose + 10% dialyzed FBS, 15.4 µM
[33] = RPMI 5 mM glucose + 10% dialyzed FBS, 46.1 µM

Structure (SMILES) | cell viability [1] [%] | cell viability [2] [%] | cell viability [3] [%] | cell viability [4] [%] | cell viability [5] [%] | cell viability [6] [%] | cell viability [7] [%] | cell viability [8] [%] | cell viability [9] [%] | cell viability [10] [%] | cell viability [11] [%] | cell viability [12] [%] | cell viability [13] [%] | cell viability [14] [%] | cell viability [15] [%] | cell viability [16] [%] | cell viability [17] [%] | cell viability [18] [%] | cell viability [19] [%] | cell viability [20] [%] | cell viability [21] [%] | cell viability [22] [%] | cell viability [23] [%] | cell viability [24] [%] | cell viability [25] [%] | cell viability [26] [%] | cell viability [27] [%] | cell viability [28] [%] | cell viability [29] [%] | cell viability [30] [%] | cell viability [31] [%] | cell viability [32] [%] | cell viability [33] [%]
CCC(C)N1\N=C/N(C1=O)C2=CC=C(C=C2)N3CCN(CC3)C4=CC=C(OC[C@H]5CO[C@@](C[N]6C=NC=N6)(O5)C7=CC=C(Cl)C=C7Cl)C=C4 (some centres not stated) | 99.9 | 109 | 114 | 120 | 111 | 115 | 101 | 101 | 103 | 98.8 | 104 | 111 | 111 | 119 | 114 | 108 | 115 | 115 | 99.7 | 108 | 110 | 97.2 | 111 | 113 | 108 | 111 | 113 | 111 | 106 | 105 | 100 | 98.5 | 95.7
Cc1c(-c2cccc3c(CCCOc4cccc5ccccc45)c(C(=O)O)n(Cc4cccnc4)c23)c(COc2ccc(N3CCN([S+](=O)([O-])N(C)C)CC3)cc2)nn1C | 96 | 94.3 | 87.4 | 93.2 | 97.4 | 91.6 | 88.5 | 85.8 | 91 | 80.3 | 71.6 | 92.1 | 87.7 | 94.1 | 85.6 | 87.2 | 92.7 | 84.2 | 88 | 91.2 | 87 | 74 | 91.7 | 93.4 | 91.4 | 95.3 | 93 | 88.2 | 82.8 | 90.8 | 81.3 | 82.4 | 67
O=C(CC12CC3CC(CC(C3)C1)C2)Nc1cccc2nc(NCCNCCO)ccc12 | 87.7 | 88.7 | 84.5 | 90.8 | 88.1 | 91.2 | 98.2 | 88.1 | 95.7 | 92 | 56.7 | 84.7 | 87.2 | 85.6 | 89.4 | 88.8 | 86.3 | 87.4 | 81.9 | 89.2 | 94.1 | 57.6 | 82 | 86.6 | 85.7 | 99.4 | 91.4 | 94.8 | 90.3 | 85.8 | 77.6 | 93.8 | 42.4
C[C@H]1C[C@H]2[C@@H]3CC[C@](O)(C(=O)CO)[C@@]3(C)C[C@H](O)[C@@H]2[C@@]\4(C)/C=C\C(=O)\C=C14 | 96.9 | 97.4 | 96.9 | 91.7 | 98.7 | 88.1 | 64.1 | 64.9 | 57.3 | 57.6 | 56.9 | 91.2 | 96.3 | 95.4 | 96.8 | 78.5 | 80 | 55.2 | 50.4 | 47.6 | 48.2 | 45 | 85.3 | 88.2 | 84.1 | 93.5 | 88.2 | 74.2 | 53.3 | 40.6 | 40.6 | 38.6 | 34.9
O=C(CCCCCCC(=O)Nc1ccc([C@H]2O[C@@H](CSc3nc(-c4ccccc4)c(-c4ccccc4)o3)C[C@@H](c3ccc(CO)cc3)O2)cc1)NO |  |  |  |  |  |  |  |  |  |  |  | 118 | 122 | 134 | 123 | 136 | 116 | 115 | 114 | 49.9 | 4.95 | 3.26 |  |  |  |  |  |  |  |  |  |  | 
CC(C)=CCC/C(C)=C/CC/C(C)=C/CSc1ccccc1C(=O)O | 103 | 121 | 117 | 113 | 119 | 105 | 91.2 | 83.7 | 90.6 | 61 | 36.4 | 106 | 106 | 111 | 95.7 | 101 | 90 | 82.1 | 67.3 | 60 | 47.9 | 34.4 | 104 | 112 | 120 | 116 | 98.1 | 97.2 | 99.5 | 76.4 | 75.2 | 60 | 39.8
CO[C@@]12[C@H](COC(N)=O)C/3=C(N1C[C@@H]4N[C@H]24)/C(=O)/C(=C(N)\C3=O)C | 117 | 123 | 125 | 126 | 119 | 116 | 112 | 121 | 118 | 118 | 99.2 |  |  |  |  |  |  |  |  |  |  |  |  |  |  |  |  |  |  |  |  |  | 
N[S+](=O)([O-])c1cc2c(cc1Cl)NC(C(Cl)Cl)N[S+]2(=O)[O-] (configuration not stated) | 102 | 109 | 105 | 112 | 113 | 118 | 117 | 120 | 114 | 123 | 118 | 114 | 120 | 111 | 120 | 126 | 129 | 127 | 130 | 139 | 123 | 128 | 109 | 117 | 104 | 118 | 118 | 122 | 114 | 124 | 121 | 122 | 115
CC(=O)OC[C@H]1O[C@@H]([S-])[C@H](OC(C)=O)[C@@H](OC(C)=O)[C@@H]1OC(C)=O.CCP(CC)CC.[Au+] | 89.2 | 88.1 | 91.2 | 99.2 | 94.1 | 102 | 98.6 | 94.5 | 71.7 | 6.24 | 6.03 | 86.8 | 89.2 | 90.6 | 93.1 | 82.2 | 90.6 | 93.4 | 89.3 | 14.8 | 5.1 | 4.94 | 87.8 | 84.1 | 81.6 | 92.7 | 79.7 | 87.6 | 91.9 | 78.2 | 6.72 | 5.18 | 5.56
C/C(=N\NC(=S)N1CCC1)c1ccccn1 | 105 | 92.4 | 47.6 | 29.3 | 12 | 8.28 | 5.61 | 10.9 | 8.16 | 1.94 | 20.3 | 110 | 96.3 | 57.6 | 22.7 | 10.4 | 8.95 | 8.33 | 6.64 | 5.66 | -0.453 | 9.21 | 117 | 107 | 64.9 | 29.8 | 12.9 | 9.03 | 6.61 | 6.04 | 3.26 | -0.0472 | 8.99
CCOc1cc2ncc(C#N)c(Nc3ccc(F)c(Cl)c3)c2cc1NC(=O)/C=C/CN(C)C | 118 | 116 | 131 | 122 | 116 | 71.7 | 80.9 | 61.1 | 41.6 | 21.1 | 2.69 | 121 | 120 | 123 | 128 | 121 | 95.2 | 85.3 | 71.9 | 57.6 | 26.3 | 5.42 |  |  |  |  |  |  |  |  |  |  | 
N\C1=N\C2=C(N=C[N]2COCCO)C(=O)N1 | 98.2 | 109 | 106 | 107 | 111 | 112 | 111 | 112 | 109 | 105 | 91.3 | 93.7 | 112 | 106 | 115 | 110 | 99.4 | 110 | 106 | 106 | 92.3 | 84.6 | 97.2 | 97.8 | 111 | 98.2 | 105 | 97.3 | 110 | 94.7 | 98.9 | 102 | 85.1
CCc1cc2c(cc1N1CCC(N3CCOCC3)CC1)C(C)(C)c1[nH]c3cc(C#N)ccc3c1C2=O | 100 | 99.5 | 110 | 130 | 138 | 130 | 131 | 121 | 116 | 115 | 65.3 | 73.7 | 73.3 | 97.2 | 134 | 126 | 124 | 130 | 100 | 110 | 107 | 102 | 86.2 | 81.9 | 108 | 127 | 136 | 128 | 125 | 118 | 109 | 122 | 96.5
CC(C)(F)C[C@H](N[C@@H](c1ccc(-c2ccc([S+](C)(=O)[O-])cc2)cc1)C(F)(F)F)C(=O)NC1(C#N)CC1 | 106 | 120 | 111 | 112 | 115 | 117 | 124 | 115 | 112 | 110 | 98.7 | 99.9 | 114 | 111 | 121 | 120 | 111 | 112 | 109 | 113 | 106 | 98.7 | 93.8 | 115 | 106 | 106 | 121 | 111 | 111 | 111 | 109 | 101 | 99.5
CN(C)c1ccc2nc3ccc(N(C)C)cc3[s+]c2c1 | 99.5 | 105 | 109 | 105 | 109 | 113 | 111 | 102 | 59.7 | 10.9 | 3.04 | 95.6 | 106 | 96.7 | 109 | 110 | 124 | 115 | 98.5 | 60.3 | 8 | 2.12 | 91.4 | 106 | 98.2 | 96.4 | 104 | 116 | 114 | 94.9 | 71.3 | 12.8 | 2.16
O=C(CS(=O)Cc1ccco1)NC/C=C\COc1cc(CN2CCCCC2)ccn1 (configuration not stated) | 90.8 | 98.6 | 100 | 98 | 101 | 102 | 107 | 104 | 107 | 112 | 100 | 87.7 | 88 | 93.3 | 99.8 | 104 | 98.7 |  | 96.4 | 109 | 94.4 | 109 | 78.9 | 87.4 | 87.2 | 97.4 | 101 | 94.4 | 95.9 | 92.3 | 93.2 | 105 | 99.3
